Results taken from patent publication US12286437B2, “Cardiac sarcomere inhibitors” (Cytokinetics, Inc., priority 2021, dated 2025).

What was measured:
[1] = system: bovine cardiac myofibrils; assay: Myofibril assay (ATPase activity of skinned bovine cardiac myofibrils, PK/LDH-coupled); type: biochemical; details: inhibition of steady-state ATPase of bovine cardiac myofibrils; CaCl2 for 50% or 75% activation
Method: To evaluate the effect of compounds on the ATPase activity of full-length cardiac myosin in the context of the native sarcomere, skinned myofibril assays were performed. Bovine cardiac myofibrils were obtained by homogenizing bovine cardiac left ventricular tissue in the presence of a detergent such as triton X-100. Such treatment removes membranes and a majority of the soluble cytoplasmic proteins but leaves intact the cardiac sarcomeric acto-myosin apparatus. Myofibril preparations retain the ability to hydrolyze ATP in a Ca^2+ regulated manner. ATPase activities of such myofibril preparations in the presence and absence of compounds were assayed at Ca^2+ concentrations activating to a defined fraction of the maximal rate (i.e., […], 75%). Small molecule agents were assessed for their ability to inhibit the steady-state ATPase activity of bovine cardiac myofibrils using pyruvate kinase and lactate dehydrogenase (PK/LDH)-coupled enzyme system. This assay regenerates myosin-produced ADP into ATP by oxidizing NADH, producing an absorbance change at 340 nm. Prior to testing small molecule agents, the bovine cardiac myofibrils were assessed for their calcium responsiveness and the calcium concentration that achieves either a 50% (pCa50) or 75% (pCa75) activation of the myofibril system was chosen as the final condition for assessing the inhibitory activity of the small molecule agents. All enzymatic activity was measured in a buffered solution containing 12 mM PIPES (piperazine-N,N′-bis(2-ethanesulfonic acid), 2 mM magnesium chloride at pH 6.8 (PM 12 buffer). Final assay conditions were 1 mg/mL of bovine cardiac myofibrils, 4 U/mL pyruvate kinase, 6 U/mL lactate dehydrogenase, 50 μM ATP, 0.1 mg/mL BSA (bovine serum albumin), 10 ppm antifoam, 1 mM DTT, 0.5 mM NADH, 1.5 mM PEP, 0.6 mM EGTA, and an amount of CaCl2 sufficient to achieve either 50% or 75% activation of the myofibril ATPase activity. Results for compounds tested are provided in Table A. Compounds tested were prepared in accordance with the synthetic procedures described herein.

[2] = Rat single dose pharmacokinetics; type: in vivo, Sprague Dawley rats; details: male, Sprague Dawley, plasma, IV; for Vd: read-out: Vss
Method: Male Sprague Dawley rats were obtained from Zhejiang Vital River Laboratory Animal Technology Co., Ltd. The animals in IV group had free access to water and food. The animals in PO group were fasted overnight before dosing and provided with food 2 hours post dosing. The IV dose solution was prepared in 10% DMA/50% PG/40% HPβCD solution (40% w/v aqueous HPβCD) at a concentration of 1 mg/mL. The oral dosing suspension was prepared by suspending Test Article in 0.5% HPMC/0.1% Tween 80 in water at a concentration 0.2 mg/mL. Concentrations of IV and PO doses were measured at the end of the study. Pharmacokinetic parameters were calculated using the nominal dose values if the measured values were within 20% of the nominal values. Three rats were dosed IV via a bolus injection via caudal vein. Three rats per dose group were dosed by oral gavage. Blood samples were collected from the jugular vein cannula at predose, 5 (IV only), 15, 30 minutes, and 1, 2, 4, 6, and 24 hours post-dose. Blood volumes were replaced with an equal amount of sterile 0.9% saline. Blood samples were centrifuged and the collected plasma was stored at −80° C. for subsequent analysis. Plasma samples were analyzed for Test Article concentrations using a LC/MS/MS method. Briefly, a 50 μL aliquot of each plasma sample was mixed with 100 μL of acetonitrile that contained an internal standard. The mixture was vortexed and centrifuged. Ten (10) […] of the resulting solution was injected onto a reverse-phase C18 column and the resultant peaks detected on a LC/MS/MS equipped with a turbo ionspray ionization source. Sample concentrations below the limit of quantification (BLQ) were treated as zero for pharmacokinetic calculations. Pharmacokinetic parameters were estimated from individual animals using noncompartmental analysis of the concentration-time data (Phoenix WinNonLin software, version 64; Pharsight, Mountain View, CA). The elimination rate constant (k) was calculated as the absolute value of the slope of the linear regression of logarithm (log) of the concentration versus time for the last three data points of the concentration-time profiles. Apparent elimination half-life (t1/2) values were calculated as ln(2)/k. Area under the concentration-time curve (AUC) values were estimated using linear trapezoidal method. AUCt values were calculated from the dosing time to the last measurable concentration. AUC∞ values were calculated as the sum of the corresponding AUCt and the ratio of the last detectable concentration divided by k (AUCt-∞). Plasma clearance (CL) was calculated from Dose/AUC∞. Mean resident time (MRT) was estimated by moment analysis. Volume of distribution at steady state (Vss) was calculated from MRT∞×CL. Maximum concentration (Cmax) and time to reach Cmax (tmax) were recorded as observed. Bioavailability was calculated from the ratio of dose normalized AUC∞,po of individual rats/mean dAUC∞,iv×100% where dAUC was the dose normalized AUC value. Compounds tested were prepared in accordance with the synthetic procedures described herein.

[3] = Dog cassette dosing pharmacokinetics; type: in vivo, beagle dogs; details: male, beagle, plasma, IV; for Vd: read-out: Vss; for half-life: read-out: t½ (converted)
Method: Non-naïve male beagle dogs (8 months to 3 years of age, body weight 8-14 kg) sourced from Jiangsu Johnsen Bioresource CO. and/or Beijing Rixinkeji CO., LTD and/or Beijing Marshall Biotechnology CO., LTD were used in this study. All animals for IV administration had free access to food and water. The IV dose solution was prepared in 10% DMA/50% PG/40% HPβCD solution (40% w/v aqueous HPβCD) at a concentration of 0.2 mg/mL. Concentrations of IV dose was measured at the end of the study. PK parameters were calculated using the nominal dose values if the measured values were within 20% of the nominal values. Blood samples were collected by venipuncture of peripheral veins except the dosing vein at pre-dose, 5 15, 30 min, 1, 2, 4, 6, 8 and 24 h post-dose. Blood samples were centrifuged and resultant plasma was frozen for bioanalysis. Plasma samples were stored at −80° C. before analysis. Plasma samples were analyzed for compound concentrations using the LC/MS/MS method. Briefly, a 50 μL aliquot of each plasma sample was mixed with 100 μL of acetonitrile that contained an internal standard. The mixture was vortexed and centrifuged. Ten (10) μL of the resulting solution was injected onto a reverse-phase C18 column and the resultant peaks detected on a LC/MS/MS equipped with a turbo ionspray ionization source. Sample concentrations below the limit of quantification (BLQ) were treated as zero for PK calculations. PK parameters were estimated from individual animals using noncompartmental analysis of the concentration-time data (Phoenix WinNonLin software, version 64; Pharsight, Mountain View, CA). The elimination rate constant (k) was calculated as the absolute value of the slope of the linear regression of logarithm (log) of the concentration versus time for the last three data points of the concentration-time profiles. Apparent elimination half-life (t1/2) values were calculated as ln(2)/k. Area under the concentration-time curve (AUC) values were estimated using linear trapezoidal method. AUCt values were calculated from the dosing time to the last measurable concentration. AUC∞ values were calculated as the sum of the corresponding AUCt and the ratio of the last detectable concentration divided by k. Plasma clearance (CL) was calculated from Dose/AUC∞. Mean resident time extrapolated to infinity (MRT∞) was estimated by moment analysis. Vss was calculated from MRT∞×CL. Maximum concentration (Cmax) and time to reach Cmax (tmax) were recorded as observed. As this was a cross-over study, bioavailability was calculated dAUC∞,po/dAUC∞,iv×100% where dAUC was the dose normalized AUC value from the same animal given IV and PO dose. Data for compounds tested are provided in Table G. Compounds tested were prepared in accordance with the synthetic procedures described herein.

[4] = Monkey cassette dosing pharmacokinetics; type: in vivo; details: IV

In the case of `CC(C)N1CC(=O)N(Cc2ccc(F)c(Cl)c2)C2(CN(c3cccnn3)C2)C1=O` [Compound 9, 5-(3-chloro-4-fluorobenzyl)-8-isopropyl-2-(pyridazin-3-yl)-2,5,8-triazaspiro[3.5]nonane-6,9-dione], the “CDMF IC15” value [1] was 1.6 µM, the clearance [2] was 27.4 mL/min/kg and the half-life [2] was 0.925 h. For the same compound, the Vd [2] was 1.64 L/kg, the clearance [3] was 13.9 mL/min/kg and the Vd [3] was 3.08 L/kg. For the same compound, the half-life [3] was 3.65 h, the “t l/2” value [4] was 1.59 h and the clearance ([4]; male, plasma) was 15.2 mL/min/kg. The Vd ([4]; male, plasma, read-out: Vss) was 1.88 L/kg.
In the case of `C[C@H]1CC[C@H](N2CC(=O)N(Cc3ccc(Cl)c(F)c3)C3(CN(C(N)=O)C3)C2=O)CC1` [Compound 3, 5-(4-chloro-3-fluorobenzyl)-8-((1r,4r)-4-methylcyclohexyl)-6,9-dioxo-2,5,8-triazaspiro[3.5]nonane-2-carboxamide], the “CDMF IC15” value [1] was 0.7 µM, the clearance [2] was 78.5 mL/min/kg and the half-life [2] was 2.6 h. It also gave a Vd [2] of 14.7 L/kg, a clearance [3] of 7.16 mL/min/kg and a Vd [3] of 6.9 L/kg. It also gave a half-life [3] of 13.1 h.
